Patent US7888355B2, “Compositions and methods for inhibiting growth and metastasis of melanoma” (Burnham Institute for Medical Research, priority 2007, dated 2011)

How the values were obtained:
[1] = system: ATF2 transcriptional activity; assay: Jun2-luciferase reporter assay in SW1 cells; assay type: cell-based; conditions: Mus musculus, Jun2-Luc, 8 h, read-out: concentration required to cause about 50% inhibition of ATF2 transcriptional activity
Description: Constructs and inhibitors. An ATF2 peptide (aa 51-100) was cloned into HA-tagged pcDNA3 vector as previously described (Bhoumik et al., Cancer Res 64:8222-30, 2004). 5×Jun2tk-Luc (marker for ATF2 transcriptional activities), 5×TRE-tk-Luc (marker for AP1/c-Jun transcriptional activities) and 2×NF-B-Luc were previously described (Bhoumik et al., J Clin Invest 110:643-50, 2002). Pharmacological inhibitor of JNK (SP600125) was purchased (EMD biosciences) and added (5 μM) to cultured cells as indicated in Results.
Transcriptional analysis. Transient transfection of different reporter constructs into melanoma cells was performed using LIPOFECTAMINE PLUS transfection reagent (Invitrogen). Luciferase activity was determined as previously described (Bhoumik et al., PNAS 101:4222-7, 2004).
These compounds were next assessed for their impact on ATF2 transcriptional activity. The effect of AIGA on ATF2 transcriptional activities was measured by the Jun2-luciferase assay. SW1 cells were transfected with the Jun2-luciferase plasmid and 24 h later cells were treated with the indicated concentrations of AIGA or CSL for 8 h before proteins were prepared and level of luciferase activity was measured. ATF2 51-100 peptide was used as a positive control. Data shown represent results from 3 experiments. […]

[2] = system: JNK phosphorylation on residues 183/185; assay: Western blot for JNK phosphorylation in SW1 cells; assay type: cell-based, mouse; conditions: 0.5, 1.0, 2.0 μM
Description: (§1) Immunoblot analysis. Proteins prepared from cells at the indicated time points using RIPA buffer and 75 μg were separated on SDS-PAGE followed by immunoblot analysis using the antibodies indicated. Antibodies used were as follows: anti-JNK (Santa Cruz), phospho-JNK (Promega Corp.; Madison, Wis.), phospho c-Jun (Cell Signaling Technology, Inc.; Danvers, Mass.), c-Jun (Santa Cruz Biotechnology, Inc.; Santa Cruz, Calif.) and Caspase 8 (BD Biosciences; San Jose, Calif.).
Thus, the two compounds were evaluated to determine if they require JNK activity for their effects on melanoma cells. To this end, the ability of AIGA or CSL to affect the viability of melanoma cells in the presence of a JNK inhibitor was tested. SW1 cells, with or without a 30-minute pretreatment with the JNK inhibitor SP600125 (10 μM), were contacted with AIGA or CSL at the indicated concentrations for 20 h. ATP levels were used to measure the cell viability using the ATPLITE kit. […] To assess whether these compounds affect JNK activity, changes in JNK phosphorylation on residues 183/185, which are required for its kinase activity, were monitored. […] Total level of JNK was analyzed in parallel. […]

[3] = system: phosphorylation of c-Jun; assay: Western blot for c-Jun phosphorylation in SW1 cells; assay type: cell-based, mouse; conditions: AIGA 0.5 or 2.0 μM, CSL 0.5 or 1.0 μM, 20 h
Description: as §1
The activation of JNK by both compounds was confirmed upon analysis of its substrate c-Jun. SW1 cells were pretreated with the JNK inhibitor SP600125 followed by addition of AIGA (0.5 μM or 2.0 μM) or CSL (0.5 μM or 1.0 μM) for 20 h. Total protein extracts were used to determine the phosphorylation of c-Jun.

[4] = system: SW1 melanoma cells; assay: Apoptosis by FACS of PI-stained SW1 cells; assay type: cell-based, mouse; conditions: 48 h
Description: (§2) Mitochondrial activity and apoptosis. Cells were exposed to the chemicals for 12-48 hours as indicated in Results. To measure changes in mitochondrial activity reflective of general cell viability, the ATPLITE ATP detection assay was used according to the manufacturer's recommendations (Perkin Elmer). Apoptosis analysis was performed by flow cytometry of PI-stained cells. The percentage of cells to the left of the diploid G0/1 peak, characteristic of hypodiploid cells that have partially lost DNA, was calculated as percentage of apoptotic cells (Bhoumik et al., PNAS 101:4222-7, 2004). Analysis of changes in Caspase 8 expression pattern was performed using immunoblot analysis.
The finding that CSL and AIGA reduced cell viability in melanoma was made using the ATPLITE assay, which monitors the degree of mitochondrial ATP release, a marker for mitochondrial activity. To directly assess possible changes in the apoptosis of melanoma cells following their exposure to CSL or AIGA, FACS analysis of the melanoma cells was performed 48 h after treatment. […] Treatment with 1 μM AIGA caused 15% apoptosis in these melanoma cultures (FIG. 4a). Treatment with CSL caused 13% apoptosis at a dose of 0.5 μM and 35% apoptosis at a dose of 1 μM (FIG. 4b). Consistent with these finding is the activation of caspases 8, a classic marker for apoptosis, which was observed upon addition of these compounds, by Western blot analysis. SW1 cells were treated with 0.5 μM AIGA, 0.5 μM CSL, 1.0 μM CSL for 24 hours. Staurosporin was used as a positive control. Immunoblot analysis using caspase 8 antibody monitored full length and cleaved forms (active) of caspase 8. β-actin was used as a loading control.

[5] = system: caspase 8; assay: Caspase 8 immunoblot in SW1 cells; assay type: cell-based, mouse; conditions: 0.5 μM AIGA, 0.5 or 1.0 μM CSL, 24 hours
Description: as §2
Immunoblot analysis. Proteins prepared from cells at the indicated time points using RIPA buffer and 75 μg were separated on SDS-PAGE followed by immunoblot analysis using the antibodies indicated. […]
The finding that CSL and AIGA reduced cell viability in melanoma was made using the ATPLITE assay, which monitors the degree of mitochondrial ATP release, a marker for mitochondrial activity. […] Immunoblot analysis using caspase 8 antibody monitored full length and cleaved forms (active) of caspase 8. β-actin was used as a loading control.

Structure (SMILES) | IC50 [1] [nM] | phosphorylation of JNK on residues 183/185 [2] | c-Jun phosphorylation [3] | % apoptosis of SW1 melanoma cells ([4]; 1 μM) [%] | cleaved (active) forms of caspase 8 [5] | % apoptosis of SW1 melanoma cells ([4]; 0.5 μM) [%]
CC(=O)Oc1c2c(c(CC=C(C)C)c3c1C(=O)C1=C[C@@H]4CC5C(C)(C)OC(C/C=C(\C)C(=O)O)(C4=O)[C@@]15O3)OC(C)(CCC=C(C)C)C=C2 (some centres unmarked) [AIGA, Acetyl isogambogic acid] | ~500 | induced phosphorylation of JNK | efficiently induced c-Jun phosphorylation | 15 | increase in intensity of the cleaved forms caspase 8 | 
CC1=C(O)C(=O)C=C2C1=CC=C1[C@@]2(C)CC[C@@]2(C)[C@@H]3C[C@](C)(C(=O)O)CC[C@]3(C)CC[C@]12C [Celastrol] | ~50 | induced phosphorylation of JNK | efficiently induced c-Jun phosphorylation, with CSL being more potent | 35 | increase in intensity of the cleaved forms caspase 8 | 13
